Assay [1] relates to αSyn–ClpP binding. The assay can be described thus: Immunoprecipitation of recombinant ClpP and αSyn in vitro. On the set-up: species or system human. To be noted: recombinant ClpP pre-incubated with peptide 30 min before αSyn; anti-ClpP IP; 3 independent experiments. How it is done:
The human recombinant WT- (#S-1001-2), A53T- (#S-1001-2), ΔNAC- (#S-1015-1) and ΔC- (#S-1012-1) αSyn and FITC-αSyn (S-1113-2) were purchased from rPeptide. The human recombinant αSyn pre-formed fibrils (PFF) (Type 1) (SPR-322) and ATTO-594-PFF (SPR-322B-A594) were purchased from StressMarq Biosciences (Bioactivity has been widely validated via various approaches, e.g. TEM, ThT).
Cells or tissues were lysed in total lysis buffer (50mM Tris-HCl, pH 7.5, 150mM NaCl, 1% Triton X-100, and protease inhibitor). Total protein lysates (800 µg) were incubated with the indicated antibodies overnight at 4 °C followed by the addition of protein A/G beads (sc-2003, Santa Cruz) for 2 h at 4 °C. Various recombinant αSyn and Clpp (500 ng) were incubated in in vitro interaction buffer (20mM Tris-HCl pH 7.5, 100mM KCl, 2mM MgCl2 and 0.1% Triton-X100) for 30 min at room temperature, and then incubated with indicated antibodies overnight at 4 °C followed by the addition of protein A/G beads for 2 h at 4 °C. The beads with immuno-precipitates were pulled down at 4000 g and washed four times with total lysis buffer/in vitro interaction buffer in the presence of 0.1% Triton X-100 and were analyzed by western blot analysis.

Assay [2] relates to ClpP (SH-SY5Y cells). Nature of the assay: ClpP protein level, western blot, SH-SY5Y cells. In kind it is cell-based. For orientation: In western blotting, separated proteins are transferred to a membrane and probed.
The subject of assay [3] is αSyn monomer. Nature of the assay: αSyn monomer ELISA, Tet-inducible αSyn SH-SY5Y cells. The class given is cell-based, human. To be noted: vs TAT. The protocol:
After one day incubation with doxycycline (1µM), αSyn tet-on inducible expression SHSY5Y cells were treated with TAT or CS2 peptides at 10 µM for another two days. The level of αSyn monomer released into culture medium was measured using LEGEND MAX human αSyn ELISA kit (448607, Biolegend). The level of extracellular and intracellular αSyn oligomers was measured using human alpha synuclein oligomer ELISA kit (MBS730762, Mybioresource).
Background: ELISA stands for enzyme-linked immunosorbent assay.

The test system of assay [4] is ClpP–αSyn interaction. Nature of the assay: ClpP–αSyn proximity ligation assay in iPSC-derived neurons. In kind it is cell-based, human. To be noted: A53T-αSyn neurons; 1 µM, five days; n = 20 images per group. From the text:
PD iPS cells lines (αSyn A53T, NN0004337, donor) and its isogenic corrected control line (NN0004344) were obtained from RUCDR Infinite Biologics. The iPS cells were differentiated into dopaminergic neuron-enriched neuronal culture with the protocol described previously. Briefly, iPS cell colonies were disassociated with accutase (Invitrogen), plated onto 6-well plates pre-coated with 2.5% Matrigel (BD Biosciences) and allowed to reach 80% confluence in mTeSR medium (Stem Cell Technology). For the first 10 days, cells were treated with SB431542 (10 µM; Tocris Bioscience) and Noggin (100 ng/ml) in Neural Media (NM) with FGF2 ([…]) and EGF ([…]). NM media contained: Neurobasal and DMEM/F12 (1:1), B-27 Supplement Minus Vitamin A (50×, Invitrogen), N2 Supplement (100X, Invitrogen), GlutaMAX (Invitrogen, 100×), 100 units/ml penicillin and 100 µg/ml streptomycin (Fisher); for the next 4 days, cells were treated with human recombinant Sonic hedgehog (SHH, 200 ng/ml) in neuronal differentiation medium. Neuronal differentiation medium contained Neurobasal and DMEM/F12 (1:3), B27, N2, GlutaMax and PS. […]
Proximity ligation assay (PLA) was performed using the Duolink® In Situ Starter Kit with Detection Reagents Green (mouse/rabbit; DUO92101, DUO92014). […] PLA puncta were detected as distinct fluorescent spots and imaged by confocal microscopy (Fluoview FV3000; Olympus). […]

Take `CC(C)[C@H](NC(=O)CNC(=O)CNC(=O)CCCCCNC(=O)[C@H](CCCNC(=N)N)NC(=O)[C@H](CCCNC(=N)N)NC(=O)[C@H](CCCNC(=N)N)NC(=O)[C@H](CCC(N)=O)NC(=O)[C@H](CCCNC(=N)N)NC(=O)[C@H](CCCNC(=N)N)NC(=O)[C@H](CCCCN)NC(=O)[C@H](CCCCN)NC(=O)[C@H](CCCNC(=N)N)NC(=O)CNC(=O)[C@@H](N)Cc1ccc(O)cc1)C(=O)N[C@H](C(=O)N[C@H](C(=O)N[C@@H](C)C(=O)O)[C@@H](C)O)C(C)C` [CS2, TAT-C6-GGVVTA]: in assay [1], the “αSyn–ClpP binding, recombinant” value is reported as “significantly reduced αSyn–ClpP binding”. For the same compound, in assay [2] (Tet-inducible αSyn-expressing SH-SY5Y, vs TAT, n = 3), the “ClpP level, Tet-inducible αSyn SH-SY5Y” value is “marked increase in ClpP levels”. Besides, in assay [2] (WT or A53T αSyn overexpression, 30 min pretreatment, n = 4–5 (CS1: n = 4)), the “ClpP protein level, SH-SY5Y” value was “significantly restored ClpP protein levels”. The “extracellular αSyn monomer” value in assay [3] (10 µM, two days, ELISA, n = 4) is given as “decreased levels”. For the same compound, the “intracellular αSyn monomer” value in assay [3] is listed as “decreased levels”. For the same compound, the “ClpP–αSyn interaction by PLA” value in assay [4] is given as “markedly reduced the ClpP–αSyn interaction”.
